In brackets after ≈: the same amount, converted by molar mass. Read-outs that look alike come from different tables or passages of the source.
Experiments:
[1] = tested on: Aerobic Bacterial Biofilms; test: Log reduction of sessile microorganisms in aerobic biofilm (Example 2, Procedure A); format: cell-based, predominantly Pseudomonas species; conditions: for log reduction at 50 ppm / log reduction at 100 ppm / log reduction at 200 ppm: Pseudomonas, 7.4 represents complete kill
Procedure: (§1) Approximately 20 ml of sterile Bacto TGE broth (Difco Labs) were placed in a sterile Petri dish (15×100 mm). To this media, 10 ml of a 24 hour culture of the aerobic organisms to be tested were added. Sterile, stainless steel penicylinders (10 mm O.D., 7 mm I.D., 10 mm long) were then placed in the inoculated media. The cylinders were placed in the dish either on-end or on-side. The Petri dish containing the cylinders was then incubated at 37° C. for 48 hours. At that time, cylinders were individually removed aseptically using forceps, blotted on sterile filter paper, and washed three times by dipping in sterile saline solution. This procedure was used to ensure that only organisms that were firmly attached in the biofilm were tested.
(§2) Two biofilm-coated cylinders were then carefully dropped into separate 10 ml test tubes containing biocide solutions of varying concentrations. After one hour and four hour contact times, a cylinder was aseptically transferred to a fresh tube of TGE broth and vortexed for 30 seconds to remove all sessile organisms. The resulting broth suspension was then serially diluted and plated using TGE agar for enumeration. Plates were incubated for 48 hours at 37° C. before counting.
(§3) To minimize error, all biocide concentration/contact time points reported below were tested in duplicate and the results averaged. Results are reported as log reduction of microorganisms compared to control cylinders treated in the same manner except that no biocide was employed.
Respective samples of the five compounds were tested against the sessile microorganisms embedded in biofilms. The biofilm was comprised of a variety of microorganisms, but contained predominantly Pseudomonas species cultivated using Procedure A. The number of organisms were counted after one hour and four hours of contact.

S. aureus = conditions: planktonic; cited from earlier work
P. aerug. = conditions: planktonic; cited from earlier work
P. vulg. = conditions: planktonic; cited from earlier work
K. pneum. = conditions: planktonic; cited from earlier work
C. albic. = conditions: planktonic; cited from earlier work
[2] = tested on: Aerobic Bacterial Biofilms (oil field isolate); test: Log reduction of sessile aerobic bacteria in biofilm on stainless steel penicylinders (Example 1, Procedure A); format: cell-based, predominantly Pseudomonas species; conditions: for log reduction at 250 ppm / log reduction at 500 ppm / log reduction at 1000 ppm / log reduction at 10 ppm / log reduction at 25 ppm / log reduction at 50 ppm / log reduction at 5 ppm: Pseudomonas; for log reduction at 10 ppm / log reduction at 25 ppm / log reduction at 50 ppm / log reduction at 5 ppm: 5.1 represents complete kill
Procedure: as §1, §2, §3
An oil field isolate of aerobic bacteria was utilized in all aerobic biofilm experiments. This culture was taken from a water-flooded oil well in Texas and was tentatively identified as containing predominantly Pseudomonas species. The biofilms were developed following above Procedure A. Respective samples were treated with various concentrations of the biocides listed below and the number of bacteria were counted after one hour and four hours of contact.

[3] = tested on: Sessile Anaerobic Bacterial Biofilms (SRB); test: Log reduction of sessile sulfate-reducing bacteria in biofilm on mild steel penicylinders (Example 3, Procedure B); format: cell-based; conditions: for log reduction at 100 ppm / log reduction at 250 ppm / log reduction at 10 ppm / log reduction at 25 ppm / log reduction at 50 ppm: 4 represents complete kill; for concentration required to achieve the same level of effectiveness as OPA: SRB biofilm, compared with OPA 10 ppm, 4 hours
Procedure: SRB-containing media were prepared as follows:
14.5 g of Bacto Sulfate API Broth (Difco Labs) and 2.0 g Bacto Agar (Difco Labs) were added to 1000 ml distilled water. The solution was heated and stirred until all components were dissolved. A 1% solution of sodium thioglycollate in distilled water was also prepared. Both solutions were then autoclaved at 121° C. for 30 minutes. After cooling, 5 g of the sodium thioglycollate solution was added to the media mixture.
Mild steel penicylinders (10 mm O.D., 7 mm I.D., 10 mm long) were cleaned by soaking for 10 minutes in 0.5% hydrochloric acid. Cylinders were then rinsed three times with distilled water and dried before use.
A 4 oz screw-capped bottle was purged with argon to remove oxygen, capped and then autoclaved. After cooling, 100 ml of sterile SRB media was added to this bottle. Cleaned penicylinders were then added along with 10 ml of a five day old SRB culture. All operations were conducted under a constant stream of argon to minimize oxygen levels. The bottle was then incubated for 7-14 days (depending on the SRB used) at 37° C. At that time, cylinders were individually removed aseptically using forceps and blotted on sterile filter paper.
Two biofilm-coated cylinders were then carefully dropped into separate 10 ml test tubes of deaerated biocide solutions of varying concentrations. All of the biocide and control solutions contained 30 ppm of a non-ionic nonyl phenol ethoxylate surfactant (TERGITOL® NP-4, Union Carbide Chemicals and Plastics Company Inc., Danbury, CT). After one hour and four hour contact times, a cylinder was removed, blotted on sterile filter paper, and placed into a commercially available SRB vial (C&S Laboratories, Tulsa, OK). The vial was then sonicated (Bransonic Model 12) for 30 seconds to remove sessile organisms. The resulting solution was serially diluted into additional SRB vials for enumeration. Vials were grown for 28 days at 37° C. before reading. Blackening of the vials was used as an indication of growth.
as §3
A SRB culture was obtained from a water-flooded oil well in Alaska. The bacteria were then cultivated on the walls of the steel penicylinders using Procedure B described above. Respective samples were then contacted with glutaraldehyde, formaldehyde or OPA for one and four hours with the following results: […]

sessile microorganisms = conditions: Pope et al.; cited from earlier work
biofilm deposits = conditions: dynamic laboratory reactors, waterflood pipeline conditions; Eagar et al.; cited from earlier work
[4] = tested on: Planktonic Anaerobic Bacteria (SRB); test: Log reduction of planktonic sulfate-reducing bacteria (Example 4, Procedure C); format: cell-based
Procedure: A stock culture of the SRB to be tested was grown in a commercial SRB vial for 4 days at 37° C. The vial was then purged for approximately 30 seconds with argon to remove excess hydrogen sulfide. At that time a series of SRB vials were each inoculated with 0.1 ml of this stock culture. These vials were then incubated at 37° C. for 4 days. Each of these vials was then purged with argon. Appropriate stock solutions of biocide were prepared so that additions of 0.1-1.0 ml provided the desired concentration of biocide in each SRB vial. After 1 hour and 4 hour contact times, 1 ml aliquots were removed from each vial and were injected into fresh SRB vials. These vials were then serially diluted for enumeration.
as §3
The same sample of planktonic SRB as used in Example 3 was cultivated following above Procedure C. Respective samples of bacteria were treated with varying concentrations of OPA and the log reduction in the number of bacteria was recorded in each case.

Solubility in water = format: physicochemical; conditions: 25° C., read-out: limit of solubility in water
[5] = 1 hr contact, read-out: log reduction after 1 hr
[6] = 4 hr contact, read-out: log reduction after 4 hr
[7] = 1 h, read-out: log reduction after 1 hr
[8] = 4 h, read-out: log reduction after 4 hr

O=Cc1ccccc1C(=O)O [CB, 2-carboxybenzaldehyde]
log reduction at 50 ppm [1, 5]: 0 | log reduction at 50 ppm [1, 6]: 0 | log reduction at 100 ppm [1, 5]: 0 | log reduction at 100 ppm [1, 6]: 0.1 | log reduction at 200 ppm [1, 5]: 0.6 | log reduction at 200 ppm [1, 6]: 0.5 | MIC (S. aureus): 0.5 mMole % | MIC (P. aerug.): 2.5 mMole % | MIC (P. vulg.): 1.0 mMole % | MIC (K. pneum.): 2.5 mMole % | MIC (C. albic.): 1.0 mMole %

O=Cc1cccc(O)c1O [DHB, 2,3-dihydroxybenzaldehyde]
log reduction at 50 ppm [1, 5]: 0 | log reduction at 50 ppm [1, 6]: 0 | log reduction at 100 ppm [1, 5]: 0.5 | log reduction at 100 ppm [1, 6]: 0 | log reduction at 200 ppm [1, 5]: 1.1 | log reduction at 200 ppm [1, 6]: 0.2 | MIC (S. aureus): 0.25 mMole % | MIC (P. aerug.): 0.25 mMole % | MIC (P. vulg.): 0.25 mMole % | MIC (K. pneum.): 0.05 mMole % | MIC (C. albic.): < 0.025 mMole %

C=O [FA, formaldehyde]
log reduction at 250 ppm [2, 7]: 2 | log reduction at 500 ppm [2, 7]: 2.6 | log reduction at 1000 ppm [2, 7]: 5.1 | log reduction at 250 ppm [2, 8]: 5.1 | log reduction at 500 ppm [2, 8]: 5.1 | log reduction at 1000 ppm [2, 8]: 5.1 | log reduction at 100 ppm [3, 5]: < 2 | log reduction at 100 ppm [3, 6]: < 2 | log reduction at 250 ppm [3, 5]: < 2 | log reduction at 250 ppm [3, 6]: 3 | concentration required to achieve the same level of effectiveness as OPA [3]: Significantly higher concentrations | performance in tests (sessile microorganisms): performed well in one test but poorly in another test

O=CCCCC=O [GA, glutaraldehyde]
log reduction at 10 ppm [2, 5]: 0.1 | log reduction at 10 ppm [2, 6]: 0.7 | log reduction at 25 ppm [2, 5]: 0.3 | log reduction at 25 ppm [2, 6]: 1.7 | log reduction at 50 ppm [2, 5]: 5.1 | log reduction at 50 ppm [2, 6]: 5.1 | log reduction at 100 ppm [3, 5]: 3 | log reduction at 100 ppm [3, 6]: 4 | concentration required to achieve the same level of effectiveness as OPA [3]: Significantly higher concentrations | removing biofilm deposits and controlling number of viable organisms (biofilm deposits): effective in removing biofilm deposits and controlling the number of viable organisms

O=Cc1ccccc1C=O [OPA, ortho-phthalaldehyde]
log reduction at 5 ppm [2, 5]: 0.8 | log reduction at 5 ppm [2, 6]: 5.1 | log reduction at 10 ppm [2, 5]: 1.4 | log reduction at 10 ppm [2, 6]: 5.1 | log reduction at 25 ppm [2, 5]: 5.1 | log reduction at 25 ppm [2, 6]: 5.1 | effectiveness versus glutaraldehyde and formaldehyde ([2]; aerobic biofilm, Example 1): outperformed both glutaraldehyde and formaldehyde | log reduction at 50 ppm [1, 5]: 2.9 | log reduction at 50 ppm [1, 6]: 7.4 | log reduction at 100 ppm [1, 5]: 3.4 | log reduction at 100 ppm [1, 6]: 7.4 | log reduction at 200 ppm [1, 5]: 6 | log reduction at 200 ppm [1, 6]: 7.4 | effectiveness against sessile microorganisms in biofilms versus other aldehydes ([1]; other aldehydes at four times the concentration of OPA): surprising effectiveness | log reduction at 10 ppm [3, 5]: 3 | log reduction at 10 ppm [3, 6]: 4 | log reduction at 25 ppm [3, 5]: 3 | log reduction at 25 ppm [3, 6]: 4 | log reduction at 50 ppm [3, 5]: 4 | log reduction at 50 ppm [3, 6]: 4 | MBC ([3]; Example 3, read-out: OPA concentrations at which a complete kill of sessile microorganisms occurred (as low as)): 10 to 50 µg/mL (≈ 74.6 to 373 µM) | MBC ([3]; within 4 hours, read-out: concentration that completely kills all sessile anaerobic organisms in the biofilm): 10 µg/mL (≈ 74.6 µM) | log reduction at 100 ppm ([4]; 1 hr contact, 4 represents complete kill, read-out: log reduction after 1 hr): 0 | log reduction at 100 ppm ([4]; 4 hr contact, 4 represents complete kill, read-out: log reduction after 4 hr): 0 | log reduction at 500 ppm ([4]; 500 ppm, 1 hr contact, 4 represents complete kill, read-out: log reduction after 1 hr): 2 to 3 | log reduction at 250 ppm [4, 7]: 1 | log reduction at 250 ppm [4, 8]: 1 to 2 | MBC ([4]; Example 4, read-out: concentration for complete kill of planktonic SRB (not achieved at concentrations as high as)): > 500 µg/mL | solubility (Solubility in water): ~50 mg/mL (≈ 373000 µM) | MIC (S. aureus): 0.25 mMole % | MIC (P. aerug.): 0.25 mMole % | MIC (P. vulg.): 0.25 mMole % | MIC (K. pneum.): 0.25 mMole % | MIC (C. albic.): 0.25 mMole %

COc1cccc(C=O)c1O [OVA, ortho-vanillin]
log reduction at 50 ppm [1, 5]: 0 | log reduction at 50 ppm [1, 6]: 0 | log reduction at 100 ppm [1, 5]: 0 | log reduction at 100 ppm [1, 6]: 0 | log reduction at 200 ppm [1, 5]: 0.3 | log reduction at 200 ppm [1, 6]: 0.3 | MIC (S. aureus): 0.5 mMole % | MIC (P. aerug.): 0.5 mMole % | MIC (P. vulg.): 0.25 mMole % | MIC (K. pneum.): 0.25 mMole % | MIC (C. albic.): 0.25 mMole %

O=Cc1ccccc1O [SA, salicylaldehyde]
log reduction at 50 ppm [1, 5]: 0 | log reduction at 50 ppm [1, 6]: 0 | log reduction at 100 ppm [1, 5]: 0 | log reduction at 100 ppm [1, 6]: 0 | log reduction at 200 ppm [1, 5]: 0.2 | log reduction at 200 ppm [1, 6]: 0.2 | MIC (S. aureus): 0.25 mMole % | MIC (P. aerug.): 0.25 mMole % | MIC (P. vulg.): 0.25 mMole % | MIC (K. pneum.): 0.25 mMole % | MIC (C. albic.): 0.25 mMole %

Source: US5128051A, “Method for the control of biofouling” (Union Carbide Chemicals & Plastics Technology Corporation, priority 1991, dated 1992)
